# Measured values reported in patent US20130203718A1 (priority 2010, published 2013).
# Molecular target: T1, hMR (Homo sapiens, UniProt P08235)
# T1 construct: expressed in transfected cells; host or cells: HEK 293T
# T1 sequence (P08235 1-984): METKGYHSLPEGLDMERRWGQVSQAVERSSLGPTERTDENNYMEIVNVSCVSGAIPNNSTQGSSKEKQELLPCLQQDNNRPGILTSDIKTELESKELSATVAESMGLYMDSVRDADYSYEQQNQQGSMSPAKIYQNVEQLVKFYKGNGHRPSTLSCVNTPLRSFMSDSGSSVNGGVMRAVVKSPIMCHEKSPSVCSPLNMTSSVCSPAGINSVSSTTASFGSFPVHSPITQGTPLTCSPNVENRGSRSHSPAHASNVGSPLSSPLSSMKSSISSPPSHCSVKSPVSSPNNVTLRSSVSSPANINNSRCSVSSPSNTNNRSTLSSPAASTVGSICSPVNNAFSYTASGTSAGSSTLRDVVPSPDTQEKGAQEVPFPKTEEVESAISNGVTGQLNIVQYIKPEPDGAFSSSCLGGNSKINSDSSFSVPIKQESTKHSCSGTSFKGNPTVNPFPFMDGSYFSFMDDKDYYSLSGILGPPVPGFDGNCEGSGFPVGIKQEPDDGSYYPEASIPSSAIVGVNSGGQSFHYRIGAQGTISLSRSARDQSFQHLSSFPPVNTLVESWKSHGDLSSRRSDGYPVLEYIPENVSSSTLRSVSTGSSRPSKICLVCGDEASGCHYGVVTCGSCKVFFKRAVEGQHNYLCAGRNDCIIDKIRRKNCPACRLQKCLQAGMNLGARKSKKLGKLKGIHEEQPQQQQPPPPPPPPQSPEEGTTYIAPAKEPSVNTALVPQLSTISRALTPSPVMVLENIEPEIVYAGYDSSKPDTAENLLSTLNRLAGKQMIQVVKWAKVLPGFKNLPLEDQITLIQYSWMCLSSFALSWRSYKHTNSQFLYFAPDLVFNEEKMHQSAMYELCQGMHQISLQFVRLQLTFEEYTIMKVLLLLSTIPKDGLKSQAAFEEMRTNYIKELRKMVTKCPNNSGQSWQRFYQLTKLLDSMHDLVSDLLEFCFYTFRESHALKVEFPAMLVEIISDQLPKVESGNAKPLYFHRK
# Assay: APRn selectivity: transactivation in HEK293T cells transiently expressing hMR
# Type: cell-based
# Settings: mean±SEM; for MR Antagonist efficacy (%): aldosterone 10^−9 M
# Procedure: Measurement of the APRn Selectivity in HEK 293T.
# The HEK-293T cells were cultured and transfected according to the method described above for the PR transactivation assays. The expression vectors pcDNA-hAR, kindly provided by G. A. Coetzee, pchGR (Hellal-Levy, C et al. FEBS Lett 1999, 464, 9), and pchMR (Fagart, J. et al. EMBO J. 1998, 17, 3317) were used for studying the ability of APRn to activate or inactivate the AR, GR and MR, respectively. For each transfection assays, 2 μg of the expression vector was used together with 7 μg of the GRE2-Luc reporter vector. Dihydrotestosterone (DHT), dexamethasone (Dex) and Aldosterone (Aldo) were selected as AR, GR and MR ligands, respectively. They were used at the concentration of 10^−9 M. The APRn agonist and antagonist efficacy for AR, GR and MR were measured as described above for PR. The results are the mean±SEM of three independent experiments.
# Transfection assays were performed in HEK 293T cells by using expression vectors for the hAR, hGR and hMR and the GRE2-Luc reporter used for the PR transactivation assays.
Structure (SMILES),MR Antagonist efficacy (%),MR Agonist efficacy (%)
"CC(=O)[C@H]1CC[C@H]2[C@@H]3CC=C4C[C@@H](F)CC[C@]4(C)[C@H]3CC[C@]12C [APR-16, 3β-Fluoropregn-5-en-20-one]",−2.7 ± 3.3,0.53 ± 0.05
"C[C@@H]1CCC2C3CC=C4C[C@@H](F)CC[C@]4(C)C3CC[C@]2(C)[C@H]1F (stereo partly drawn) [APR-19, 3β,17α-Difluoro-17α-methyl-D-Homo-pregn-5-ene]",−1.0 ± 3.5,0.57 ± 0.07
"CC#C[C@]1(O)CCC2C3CC[C@H]4CCCC[C@]4(C)C3CC[C@@]21C (stereo partly drawn) [APR-42, 17α-(1-Propynyl)-5α-androstan-17β-ol]",0.4 ± 2.6,0.57 ± 0.05
"C[C@]12CCC3C(CC=C4C[C@@H](F)CC[C@@H]43)C1CCC2=O (stereo partly drawn) [APR-47, 3β-Fluoro-19-nor-androst-5-en-17-one]",2.2 ± 2.1,0.50 ± 0.14
"CC#C[C@]1(O)CCC2C3CC[C@H]4CCCC[C@@H]4C3CC[C@@]21C (stereo partly drawn) [APR-54, 17α-(1-Propynyl)-19-nor-5-androstan-17β-ol]",3.4 ± 6.2,0.53 ± 0.11
